Measurements as given in ChEMBL document CHEMBL4715826, “Selective PPARδ Modulators Improve Mitochondrial Function: Potential Treatment for Duchenne Muscular Dystrophy (DMD)” (ACS Med Chem Lett, 2018).
Each block holds one compound with its values, some of them ahead of it. Calls of active or inactive are those of the source. The rule behind the calls is not given here.

Tests used:
[1] = molecular target: T1, Peroxisome proliferator-activated receptor alpha (Homo sapiens, UniProt Q07869); experiment: Modulator activity at GAL4-fused human PPARalpha LBD (unknown origin) transfected in African green monkey CV1 cells assessed as receptor transactivation by luciferase reporter gene assay; type: cell-based, CV-1
T1 sequence (Q07869 whole entry): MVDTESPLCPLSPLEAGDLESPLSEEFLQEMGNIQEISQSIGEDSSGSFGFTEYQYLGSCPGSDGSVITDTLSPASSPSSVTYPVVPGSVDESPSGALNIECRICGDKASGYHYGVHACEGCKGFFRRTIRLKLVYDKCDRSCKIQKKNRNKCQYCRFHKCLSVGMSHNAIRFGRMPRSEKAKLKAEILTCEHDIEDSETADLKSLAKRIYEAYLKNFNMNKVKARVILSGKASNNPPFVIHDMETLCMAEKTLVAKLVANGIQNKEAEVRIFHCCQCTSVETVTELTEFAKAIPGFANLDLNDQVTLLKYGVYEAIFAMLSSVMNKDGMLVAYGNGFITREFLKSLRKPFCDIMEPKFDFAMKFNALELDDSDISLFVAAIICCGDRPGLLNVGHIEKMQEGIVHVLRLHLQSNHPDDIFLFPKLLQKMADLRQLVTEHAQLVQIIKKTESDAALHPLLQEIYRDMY

[2] = Selectivity index, ratio of EC50 for transactivation of GAL4-fused PPARalpha LBD (unknown origin) transfected in CV1 cells to EC50 for transactivation of GAL4-fused human PPARdelta LBD (128 to residue at C-terminus) transfected in African green monkey CV1 cells by luciferase reporter gene assay
[3] = molecular target: T2, Peroxisome proliferator-activated receptor gamma (Homo sapiens, UniProt P37231); experiment: Modulator activity at GAL4-fused human PPARgamma LBD (unknown origin) transfected in African green monkey CV1 cells assessed as receptor transactivation by luciferase reporter gene assay; type: cell-based, CV-1
T2 sequence (P37231 whole entry): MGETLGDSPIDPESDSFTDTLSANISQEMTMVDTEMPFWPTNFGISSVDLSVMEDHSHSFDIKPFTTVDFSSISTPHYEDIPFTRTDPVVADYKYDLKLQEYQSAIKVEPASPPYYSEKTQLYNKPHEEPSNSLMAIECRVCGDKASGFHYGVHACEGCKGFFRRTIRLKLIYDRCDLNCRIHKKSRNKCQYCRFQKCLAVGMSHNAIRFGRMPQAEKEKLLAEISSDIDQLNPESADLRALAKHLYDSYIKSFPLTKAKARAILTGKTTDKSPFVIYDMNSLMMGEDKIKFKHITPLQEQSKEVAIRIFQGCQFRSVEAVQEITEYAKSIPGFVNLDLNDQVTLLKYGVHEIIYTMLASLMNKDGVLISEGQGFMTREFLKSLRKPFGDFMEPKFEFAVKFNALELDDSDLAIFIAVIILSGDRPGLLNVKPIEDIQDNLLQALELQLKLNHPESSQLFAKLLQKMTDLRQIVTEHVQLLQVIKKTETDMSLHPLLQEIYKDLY

[4] = Half life in CD-1 mouse at 3 mg/kg, iv; type: ADME, organism-based; settings: in vivo
[5] = Clearance in CD-1 mouse at 3 mg/kg, iv; type: ADME, organism-based; settings: in vivo
[6] = AUC in CD-1 mouse at 3 mg/kg, iv; type: ADME, organism-based; parameters: dose 3 mg/kg; settings: in vivo
[7] = AUC in CD-1 mouse at 1 mg/kg, iv; type: ADME, organism-based; parameters: dose 1 mg/kg; settings: in vivo
[8] = molecular target: T3, Peroxisome proliferator-activated receptor delta (Homo sapiens, UniProt Q03181)
T3 sequence (Q03181 whole entry): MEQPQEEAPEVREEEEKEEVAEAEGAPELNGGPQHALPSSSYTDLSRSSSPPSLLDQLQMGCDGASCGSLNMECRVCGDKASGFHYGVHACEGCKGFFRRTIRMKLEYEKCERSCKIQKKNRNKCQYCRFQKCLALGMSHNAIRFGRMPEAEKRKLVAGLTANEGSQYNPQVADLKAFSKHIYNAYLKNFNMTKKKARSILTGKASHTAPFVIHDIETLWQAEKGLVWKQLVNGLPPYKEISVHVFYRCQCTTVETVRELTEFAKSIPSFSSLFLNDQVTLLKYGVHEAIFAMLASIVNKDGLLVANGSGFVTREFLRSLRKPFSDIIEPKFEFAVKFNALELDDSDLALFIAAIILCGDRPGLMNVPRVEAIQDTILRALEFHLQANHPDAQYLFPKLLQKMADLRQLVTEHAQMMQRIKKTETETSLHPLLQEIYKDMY
Description: Modulator activity at GAL4-fused human PPARdelta LBD (128 to residue at C-terminus) transfected in African green monkey CV1 cells assessed as receptor transactivation by luciferase reporter gene assay

[9] = AUC in CD-1 mouse at 3 mg/kg, po; type: ADME, organism-based; parameters: dose 3 mg/kg; settings: in vivo
[10] = Half life in CD-1 mouse at 1 mg/kg, iv; type: ADME, organism-based; settings: in vivo
[11] = molecular target: T4, Peroxisome proliferator-activated receptor delta (Mus musculus, UniProt P35396); experiment: Modulator activity at mouse PPARdelta
T4 sequence (P35396 whole entry): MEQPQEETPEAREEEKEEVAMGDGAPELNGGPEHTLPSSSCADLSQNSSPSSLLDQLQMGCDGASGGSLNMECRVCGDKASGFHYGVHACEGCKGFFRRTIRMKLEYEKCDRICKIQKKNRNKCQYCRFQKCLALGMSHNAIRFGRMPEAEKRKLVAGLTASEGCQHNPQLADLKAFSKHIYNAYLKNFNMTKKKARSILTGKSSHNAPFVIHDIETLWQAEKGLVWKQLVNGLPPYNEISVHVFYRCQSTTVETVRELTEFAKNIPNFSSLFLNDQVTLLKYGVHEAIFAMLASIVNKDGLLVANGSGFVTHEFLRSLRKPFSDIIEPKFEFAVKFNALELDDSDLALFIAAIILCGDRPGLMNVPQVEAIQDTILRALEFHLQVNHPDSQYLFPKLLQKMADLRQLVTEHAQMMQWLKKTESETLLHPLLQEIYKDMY

[12] = Modulator activity at rat PPARdelta
[13] = Protein binding in mouse plasma; type: ADME, cell-free; settings: read-out: PPB (converted)
[14] = Protein binding in rat plasma; type: ADME, cell-free; settings: read-out: PPB (converted)
[15] = Protein binding in human plasma; type: ADME, cell-free; settings: read-out: PPB
[16] = Permeability across apical to basolateral side in human Caco2 cells; type: ADME, cell-based; settings: Caco-2, read-out: permeability
[17] = Permeability across basolateral to apical side in human Caco2 cells; type: ADME, cell-based; settings: Caco-2, read-out: permeability
CYP2C9 = CYP2C9 (Homo sapiens, UniProt P11712); experiment: Inhibition of CYP2C9 (unknown origin) at 10 uM relative to control; type: ADME
Chain of CYP2C9 (P11712 whole entry): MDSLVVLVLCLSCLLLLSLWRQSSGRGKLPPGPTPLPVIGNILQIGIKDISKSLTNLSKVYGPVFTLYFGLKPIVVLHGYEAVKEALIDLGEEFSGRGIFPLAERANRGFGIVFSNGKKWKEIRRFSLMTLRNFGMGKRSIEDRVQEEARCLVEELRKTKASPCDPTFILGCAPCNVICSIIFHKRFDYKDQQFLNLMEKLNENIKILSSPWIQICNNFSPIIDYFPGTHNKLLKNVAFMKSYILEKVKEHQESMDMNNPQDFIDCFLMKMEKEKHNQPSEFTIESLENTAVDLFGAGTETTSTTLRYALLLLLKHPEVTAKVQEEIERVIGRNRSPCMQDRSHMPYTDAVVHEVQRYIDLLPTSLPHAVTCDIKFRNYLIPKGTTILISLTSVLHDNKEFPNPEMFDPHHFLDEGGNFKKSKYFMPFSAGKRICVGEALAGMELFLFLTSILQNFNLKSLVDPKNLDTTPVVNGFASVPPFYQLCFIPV

[18] = Volume of distribution at steady state in CD-1 mouse at 1 mg/kg, iv; type: ADME, organism-based; settings: in vivo, read-out: Vdss
[19] = Half life in CD-1 mouse at 3 mg/kg, po; type: ADME, organism-based; settings: in vivo
[20] = Cmax in CD-1 mouse at 3 mg/kg, po; type: ADME, organism-based; parameters: route oral, dose 3 mg/kg; settings: in vivo
[21] = Oral bioavailability in CD-1 mouse at 3 mg/kg; type: ADME, organism-based; settings: in vivo
[22] = Half life in Wistar rat at 1 mg/kg, iv; type: ADME, organism-based; settings: in vivo
[23] = Volume of distribution at steady state in Wistar rat at 1 mg/kg, iv; type: ADME, organism-based; settings: in vivo, read-out: Vdss
[24] = Clearance in Wistar rat at 1 mg/kg, iv; type: ADME, organism-based; settings: in vivo
[25] = AUC in Wistar rat at 1 mg/kg, iv; type: ADME, organism-based; parameters: dose 1 mg/kg; settings: in vivo
[26] = Half life in Wistar rat at 3 mg/kg, po; type: ADME, organism-based; settings: in vivo
[27] = Cmax in Wistar rat at 3 mg/kg, po; type: ADME, organism-based; parameters: route oral, dose 3 mg/kg; settings: in vivo
[28] = AUC in Wistar rat at 3 mg/kg, po; type: ADME, organism-based; parameters: dose 3 mg/kg; settings: in vivo
[29] = Oral bioavailability in Wistar rat at 3 mg/kg; type: ADME, organism-based; settings: in vivo
[30] = Half life in cynomolgus monkey at 3 mg/kg, iv; type: ADME, organism-based, Macaca fascicularis; settings: in vivo
[31] = Volume of distribution at steady state in cynomolgus monkey at 3 mg/kg, iv; type: ADME, organism-based, Macaca fascicularis; settings: in vivo
[32] = AUC in cynomolgus monkey at 3 mg/kg, iv; type: ADME, organism-based, Macaca fascicularis; parameters: dose 3 mg/kg; settings: in vivo
[33] = Half life in cynomolgus monkey at 10 mg/kg, po; type: ADME, organism-based, Macaca fascicularis; settings: in vivo
[34] = Cmax in cynomolgus monkey at 10 mg/kg, po; type: ADME, organism-based, Macaca fascicularis; parameters: route oral, dose 10 mg/kg; settings: in vivo
[35] = AUC in cynomolgus monkey at 10 mg/kg, po; type: ADME, organism-based, Macaca fascicularis; parameters: dose 10 mg/kg; settings: in vivo
[36] = Oral bioavailability in cynomolgus monkey at 10 mg/kg; type: ADME, organism-based, Macaca fascicularis; settings: in vivo
Mus musculus = experiment: In vivo modulator activity at PPARdelta in C57BL/6JRccHsd mouse skeletal muscle assessed as increase in Pdk4 gene expression at 30 to 100 mg/kg, po administered for 9 days and measured at 2 hrs after final administration by qPCR analysis; type: functional, organism-based; settings: dose 30-100 mg/kg, time 9.0 day
[37] = Mutagenicity in Salmonella typhimurium by mini Ames test; type: toxicity; settings: salmonella enterica subsp. enterica serovar typhimurium
[38] = Inhibition of CYP450 (unknown origin); type: ADME, Homo sapiens
[39] = molecular target: T5, Peroxisome proliferator-activated receptor delta (Mus musculus) (UniProt P35396); experiment: Modulator activity at PPARdelta in […] primary myoblasts derived from DMD patient assessed as upregulation of ANGPTL4 gene expression at 0.04 nM measured after 48 hrs; type: tissue-based; settings: Primary myotube
T5 sequence (whole entry): T4 sequence (P35396 whole entry)

[40] = molecular target: T5, Peroxisome proliferator-activated receptor delta (Mus musculus); experiment: Modulator activity at PPARdelta in […] primary myoblasts derived from DMD patient assessed as upregulation of ANGPTL4 gene expression at 0.4 nM measured after 48 hrs; type: tissue-based; settings: Primary myotube, filed as modulator
[41] = molecular target: T5, Peroxisome proliferator-activated receptor delta (Mus musculus); experiment: Modulator activity at PPARdelta in […] primary myoblasts derived from DMD patient assessed as upregulation of PDK4 gene expression at 0.04 nM measured after 48 hrs; type: tissue-based; settings: Primary myotube
[42] = molecular target: T5, Peroxisome proliferator-activated receptor delta (Mus musculus); experiment: Modulator activity at PPARdelta in […] primary myoblasts derived from DMD patient assessed as upregulation of PDK4 gene expression at 0.4 nM measured after 48 hrs; type: tissue-based; settings: Primary myotube, filed as modulator

- EC50 [1]: 1230 nM
- EC50 [3]: > 10000 nM
- half-life [4]: 0.5 h
- clearance [5]: 160 mL/min/kg
- AUC [6]: 300 ng·h/mL
Structure (SMILES): C/C(=C\COc1ccccc1Cn1c(C)cnc1-c1ccc(-c2ccco2)cc1)CCC(=O)O
- Ratio EC50 [2]: >1000

- EC50 [1]: 2290 nM
- EC50 [3]: > 10000 nM
- half-life [4]: 3.1 h
- clearance [5]: 70 mL/min/kg
- AUC [7]: 240 ng·h/mL
- EC50 [8]: 0.3 nM
Structure (SMILES): C/C(=C\COc1ccccc1Cn1c(C)cnc1-c1ccc(OC(F)(F)F)cc1)CCC(=O)O

- EC50 [3]: > 10000 nM
- half-life [4]: 0.7 h
- clearance [5]: 720 mL/min/kg
- AUC [6]: 70 ng·h/mL
- EC50 [8]: 59 nM
Structure (SMILES): C/C(=C\COc1ccccc1Cc1c(C)ncn1-c1ccc(-c2ccco2)cc1)CCC(=O)O
- Ratio EC50 [2]: >1000

Structure (SMILES): Cc1cnc(-c2ccc(OC(F)(F)F)cc2)n1Cc1ccccc1OCCC[C@@H](C)CC(=O)O
- AUC [9]: 630 ng·h/mL
- EC50 [1]: 6900 nM
- EC50 [3]: > 10000 nM
- half-life [4]: 3.3 h
- clearance [5]: 25 mL/min/kg
- AUC [6]: 1250 ng·h/mL
- half-life [10]: 2.7 h
- AUC [7]: 503 ng·h/mL
- EC50 [11]: 7.9 nM
- EC50 [12]: 10 nM
- fraction unbound [13]: 0.005
- fraction unbound [14]: 0.004
- fraction unbound [15]: 0.001
- Papp A→B [16]: 36 ×10⁻⁶ cm/s
- Papp B→A [17]: 41 ×10⁻⁶ cm/s
- inhibition at 10 µM (CYP2C9): 56%
- Vd [18]: 5.8 L/kg
- half-life [19]: 3.4 h
- Cmax [20]: 510 ng/mL
- bioavailability [21]: 42%
- half-life [22]: 6.1 h
- Vd [23]: 1.8 L/kg
- clearance [24]: 10 mL/min/kg
- AUC [25]: 1590 ng·h/mL
- half-life [26]: 4.6 h
- Cmax [27]: 1090 ng/mL
- AUC [28]: 4920 ng·h/mL
- bioavailability [29]: 90%
- t1/2 [30]: 6.1 h
- Vdss [31]: 3.2 L/kg
- AUC [32]: 8400 ng·h/mL
- half-life [33]: 7.3 h
- Cmax [34]: 1660 ng/mL
- AUC [35]: 3840 ng·h/mL
- bioavailability [36]: 13%
- Activity (Mus musculus): Active
- Activity [37]: Non-Toxic
- IC50 [38]: ≥ 10000 nM
- Activity [39]: 36%
- Activity [40]: 98%
- Activity [41]: 32%
- Activity [42]: 98%
- EC50 [8]: 0.4 nM
